System: wild type mice
Assay: two-bottle choice alcohol preference with fructokinase inhibitor
Assay type: in vivo
Conditions: wild type mice on 10 percent alcohol vs water, fructokinase inhibitor administered for 4 weeks, FIG. 2G
Excerpt: FIG. 2C provides delta FosB expression and densitometry in nucleus accumbens (Nacc) of wild type mice exposed to 0%, 3%, 6% and 10% alcohol for 10 weeks. FIG. 2D includes delta FosB expression and densitometry in nucleus accumbens (Nacc) of wild type and fructokinase knockout mice exposed to 10% alcohol for 10 weeks. […] FIG. 2F provides evidence of conditioned place preference in wild type and fructokinase knockout mice injected alcohol (2 g/kg). Data represents preference shifts for the paired section after vs before conditioning (time spent in the paired chamber posttest-pretest). […] One Way ANOVA with Tukey post hoc analysis; n=5 mice per group. Further evidence that KHK may mediate alcohol preference is shown by a conditioned place preference study, in which mice are injected with either alcohol or saline then placed in a distinctly different section of the apparatus for 4 alcohol and 4 saline trials. The mice were then tested in an alcohol-free state to determine whether they preferred the section of the apparatus that was paired with alcohol. […] It was also determined that preference for alcohol could be blocked by administering a fructokinase inhibitor (i.e., osthol) for 4 weeks to wild type mice on 10 percent alcohol. […] Thus, these studies show the novel finding that blocking fructokinase can block the craving for alcohol.

For `COc1ccc2ccc(=O)oc2c1CC=C(C)C` [osthol], the “reduced preference for alcohol in a two bottle preference system” value was 50%.

From patent US12161621B2, “Methods for fructokinase mediation of alcohol craving and alcohol induced liver disease” (REGENTS OF THE UNIVERSITY OF COLORADO, A BODY CORPORATE, priority 2018, dated 2024)
